The text below walks through data of patent publication US20080214504A1, “Vitamin B6 Related Compounds and Methods for Recovery From Trauma” (MEDICURE INTERNATIONAL INC., priority 2004, published 2008).

The test deals with patients scheduled for elective percutaneous coronary intervention (PCI) with high-risk features for periprocedural myocardial infarction. Description: Randomized placebo-controlled study of P5P in patients undergoing elective PCI: recovery, length of hospitalization, time to discharge. Type of test: in vivo, human. The text has this: Selection of Study Population—The patients selected for this trial were patients scheduled for elective percutaneous coronary intervention (PCI) with high-risk features for periprocedural myocardial infarction, and who satisfied specific inclusion criteria as described in the next section. Patients to be included in this study were of either sex, >18 years of age and admitted to hospital for elective, single-vessel, non-urgent PCI. Patients must have presented with at least one of the following high-risk clinical criteria: • ACS with last chest pain episode (or ischemic equivalent) within 48 hours, • recent myocardial infarction (≦7 days) with return of cardiac markers, (CK, CK-MB, and troponin) to below upper normal limits, • angiographic evidence of reduced epicardial flow (TIMI<3), • angiographic evidence of thrombus, • left ventricular ejection fraction≦30%, or • saphenous vein graft lesion.
The following patients were not eligible for inclusion into the study: • Those having suffered a recent myocardial infarction with elevated cardiac markers (CK-MB, troponin T), that have not returned to below upper limits or normal; • Those with electrocardiographic evidence of left bundle branch block (LBBB), ventricular paced rhythm, or atrial fibrillation; • Those with a planned multivessel PCI or PCI of known total occlusion (TIMI grade 0); • Those with evidence of ongoing or active clinical instability including; sustained systolic blood pressure<90 mmHg, cardiogenic shock, acute pulmonary edema or severe congestive heart failure, suspected acute myocarditis, pericarditis, endocarditis, cardiac tamponade, suspected dissecting aortic aneurysm, hemodynamically significant valvular heart disease, hypertrophic cardiomyopathy, restrictive cardiomyopathy, or congenital heart disease; • Any contraindication to the PCI procedure or any of the standard concomitant therapies used during routine PCI (e.g. aspirin, clopidogrel, heparin, low molecular weight heparin, direct antithrombin inhibitors, platelet glycoprotein IIb/IIIa antagonists); • Patients who were currently enrolled in a clinical trial of an investigational drug or who have participated in a clinical trial for an investigational drug (a new chemical entity not registered for clinical use) within 30 days preceding entry into the study or who are due to enter such a trial during the study period; • Patients with clinically significant abnormal laboratory findings (within 2 weeks prior to PCI) including: ALT, AST, bilirubin, or Alk Phos>1.5×ULN, Serum creatinine>1.8 mg/dL or 159 μmol/L; • Patients with any other pathology such as cancer, mental illness etc., which in the opinion of the investigator, might put the patient at risk or confound the results of the trial; • Female patients who are pregnant, breast feeding or planning a pregnancy during the course of the study; and • Patients who are unable or unwilling to comply with the protocol or who are not expected to complete the study period.
Treatments Administered—Following baseline laboratory assessments, patients were randomized to placebo or P5P (a vitamin B6 related compound), administered as a 10 mg/kg oral dose, at least (4) hours prior to PCI, followed by 10 mg/kg orally divided in two daily doses for fourteen (14) days. If PCI was delayed for more than 12 hours after initial dosing, they continued with scheduled BID dosing. If the initial loading dose was administered prior to or at 12:00 PM on day 1 of randomization, then the patient received a second evening dose. If the initial loading dose was administered following 12:00 PM, then no further dosing was administered on day 1, and the patient was to begin the next dose in the morning of day 2. If a dose was missed for more than 24 hours, patients were to continue to take the study drug as scheduled without taking supplemental doses. The date, time and dosing of the first and last study drug dosing was recorded in the CRF. […]

The mark [1] stands for this setting: P5P 10 mg/kg oral, N = 37 (3 missing).

For the molecule `Cc1ncc(COP(=O)(O)O)c(C=O)c1O` [P5P, pyridoxal-5′-phosphate], the “Time in hospital relative to placebo” value (3.3 days versus 7.0 days for placebo) is “half as long”. Also, the “Length of hospitalization, Median (25th, 75th)” value (P5P 10 mg/kg oral at least 4 h prior to PCI, then 10 mg/kg/day for 14 days, N = 40) is listed as 1.0 (1.0, 3.0) days. Besides, the “Length of hospitalization, Mean (S.D.)” value (P5P 10 mg/kg oral at least 4 h prior to PCI, then 10 mg/kg/day in two daily doses for 14 days, N = 40) is 3.3 (5.5) days. Under “P5P 10 mg/kg oral, N = 37”, the “Time to discharge from initiation of PCI, Maximum” value is 34.0 days and the “Time to discharge from initiation of PCI, Minimum” value was found to be 1.0 days. Under setting [1], the “Time to discharge from initiation of PCI, Mean (S.D)” value is recorded as 1.9 (5.4) days and the “Time to discharge from initiation of PCI, Medium (25th, 75th)” value is reported as 1.0 (1.0, 1.0) days. Under “P5P 10 mg/kg oral, N = 40”, the “Length of hospitalization, Maximum” value is recorded as 34.0 days and the “Length of hospitalization, Minimum” value is given as 0.0 days. Further, the “Number of days from initiation of PCI to discharge from hospital, shorter versus placebo” value (P5P versus placebo) turned out to be 74%. Further, the Time in hospital (placebo 7.0 days) is listed as 3.3 days.
